The values that follow come from patent US20170037028A1 (BAYER PHARMA AKTIENGESELLSCHAFT, priority 2013, published 2017).

pIC50: −log10 of the molar value.

The target in the experiment is T1, GLUT1 (Homo sapiens, UniProt P11166).
T1 sequence (P11166 1-492): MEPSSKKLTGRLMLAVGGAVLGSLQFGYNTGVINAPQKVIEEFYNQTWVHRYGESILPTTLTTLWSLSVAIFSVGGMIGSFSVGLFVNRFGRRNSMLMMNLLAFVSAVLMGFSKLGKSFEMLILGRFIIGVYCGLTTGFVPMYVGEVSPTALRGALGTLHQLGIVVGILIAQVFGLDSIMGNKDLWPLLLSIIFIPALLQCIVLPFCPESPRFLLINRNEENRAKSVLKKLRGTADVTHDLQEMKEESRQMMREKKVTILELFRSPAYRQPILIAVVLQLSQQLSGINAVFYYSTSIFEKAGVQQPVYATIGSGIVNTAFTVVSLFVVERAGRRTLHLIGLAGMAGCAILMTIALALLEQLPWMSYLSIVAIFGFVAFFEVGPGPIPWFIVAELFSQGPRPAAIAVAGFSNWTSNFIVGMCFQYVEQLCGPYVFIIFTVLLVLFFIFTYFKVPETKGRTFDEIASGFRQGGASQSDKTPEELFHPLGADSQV
In words: Indirect measurement of GLUT1 activity by quantification of intracellular ATP levels (glucose induced ATP increase). It counts as cell-based. Details: endogenous in cells; host or cells: DLD1 or CHO-K1. The note with it: read-out: IC50 regarding glucose induced ATP increase (GLUT1 inhibition). Summed up:
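DLD1 or CHO-K1 cells were starved overnight in glucose-free medium with 1% FCS, then combined with an oxidative phosphorylation inhibitor. GLUT1 activity was read as glucose-induced ATP increase, GLUT2 as fructose-induced. Intracellular ATP was quantified by CellTiter-Glo luminescence.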
Take `Cc1nn(Cc2c(F)cccc2F)c(C)c1NC(=O)c1cc(C(N)=O)nc2cccc(F)c12` [Example 1633]: the pIC50 was 8.34. In the case of `Cc1cc(Cn2nc(C)c(NC(=O)c3cc(C(N)=O)nc4cc(F)ccc34)c2C)on1` [Example 1561] it was 7.98; in that of `Cc1nn(Cc2ccc(C(=O)NC[C@@H](O)CO)cc2)c(C)c1NC(=O)c1cc(C(F)(F)F)nc2ccc(Br)cc12` [Example 1152], 6.88; in that of `Cc1c(NC(=O)c2cc(C(N)=O)nc3cc(F)c(Cl)cc23)c(C(F)(F)F)nn1Cc1nc(C(=O)O)co1` [Example 1686], 5.89. For `Cc1c(NC(=O)c2cc(C(N)=O)nc3cccc(F)c23)c(C(F)(F)F)nn1Cc1ccc(C#N)cc1` [Example 249, N^4-[1-(4-cyanobenzyl)-5-methyl-3-(trifluoromethyl)-1H-pyrazol-4-yl]-5-fluoroquinoline-2,4-dicarboxamide], the pIC50 is 9.00.

As to `Cc1c(NC(=O)c2cc(C(N)=O)nc3ccccc23)c(C(F)(F)F)nn1CCc1ccc(F)cc1` [Example 1371], the pIC50 is 6.84.

On to `COCCNC(=O)c1ccc(Cn2nc(C)c(NC(=O)c3cc(C(F)(F)F)nc4ccc(Br)cc34)c2C)cc1` [Example 137, 6-bromo-N-(1-{4-[(2-methoxyethyl)carbamoyl]benzyl}-3,5-dimethyl-1H-pyrazol-4-yl)-2-(trifluoromethyl)quinoline-4-carboxamide], for which the pIC50 was 7.97. Then `Cc1nn(Cc2ccc(C(=O)Nc3ccccc3)cn2)c(C)c1NC(=O)c1cc(C(F)(F)F)nc2ccc(Br)cc12` [Example 1041], with 8.07. In the case of `Cc1nn(Cc2ccc(F)cc2)c(C)c1NC(=O)c1cc(C(=O)N(C)C)nc2ccccc12` [Example 209, N^4-[1-(4-fluorobenzyl)-3,5-dimethyl-1H-pyrazol-4-yl]-N^2,N^2-dimethylquinoline-2,4-dicarboxamide] it was 6.09; in that of `Cc1nn(Cc2ccc(F)cc2C#N)c(C)c1NC(=O)c1cc(C(N)=O)nc2cc(F)ccc12` [Example 1660], 8.89. In the case of `CNC(=O)c1nc(Cn2nc(C(F)(F)F)c(NC(=O)c3cc(C(N)=O)nc4ccccc34)c2C)no1` [Example 1557] it was 7.27; in that of `Cc1nn(Cc2ccc(C(=O)NCCF)cc2)c(C)c1NC(=O)c1cc(C(F)(F)F)nc2ccc(Br)cc12` [Example 1030], 8.49; in that of `Cc1nn(CC2CCOCC2)c(C)c1NC(=O)c1cc(C(F)(F)F)nc2cc(F)c(F)cc12` [Example 1262], 5.64. For the compound `Cc1cccc(Cn2nc(C(F)(F)F)c(NC(=O)c3cc(C(N)=O)nc4cc(F)ccc34)c2C)c1` [Example 1480], the pIC50 was 7.98. Then `COc1cc(C(=O)Nc2c(C)nn(Cc3ccccc3)c2C)c2ccccc2n1` [Example 65, N-(1-benzyl-3,5-dimethyl-1H-pyrazol-4-yl)-2-methoxyquinoline-4-carboxamide], with 6.88; and `Cc1ccc2nc(C)cc(C(=O)Nc3c(C)nn(Cc4ccc(Br)cc4)c3C)c2c1` [Example 1113], with 7.23; and `CCc1cc(Cn2nc(C(F)(F)F)c(NC(=O)c3cc(C(N)=O)nc4cc(F)c(Cl)cc34)c2C)on1` [Example 410, 6-chloro-N^4-{1-[(3-ethyl-1,2-oxazol-5-yl)methyl]-5-methyl-3-(trifluoromethyl)-1H-pyrazol-4-yl}-7-fluoroquinoline-2,4-dicarboxamide], with 8.05. In the case of `Cc1nn(CC2CCN(S(=O)(=O)C3CCCC3)CC2)c(C)c1NC(=O)c1cc(C(N)=O)nc2ccccc12` [Example 1518] it was 7.16; in that of `Cc1nn(Cc2ccc(C(=O)NCc3ccc(-c4nnn[nH]4)cc3)cc2)c(C)c1NC(=O)c1cc(C(F)(F)F)nc2ccc(Br)cc12` [Example 1060], 7.80; in that of `Cc1nn(Cc2c(F)cc(F)cc2F)c(C)c1NC(=O)c1cc(C(F)(F)F)nc2c(Cl)cc(Cl)cc12` [Example 57, 6,8-dichloro-N-[3,5-dimethyl-1-(2,4,6-trifluorobenzyl)-1H-pyrazol-4-yl]-2-(trifluoromethyl)quinoline-4-carboxamide], 7.18.

For the compound `Cc1nn(Cc2ccc(F)cc2)c(C)c1NC(=O)c1cc(C2CCC2)nc2ccc(Br)cc12` [Example 146, 6-bromo-2-cyclobutyl-N-[1-(4-fluorobenzyl)-3,5-dimethyl-1H-pyrazol-4-yl]quinoline-4-carboxamide], the pIC50 is 8.10. In the case of `CCc1nn(Cc2ccc(C#N)cc2)c(C)c1NC(=O)c1cc(C(N)=O)nc2cc(F)ccc12` [Example 327, N^4-[1-(4-cyanobenzyl)-3-ethyl-5-methyl-1H-pyrazol-4-yl]-7-fluoroquinoline-2,4-dicarboxamide] it was 8.43; in that of `Cc1nn(Cc2ccc(S(C)(=O)=O)cc2)c(C)c1NC(=O)c1cc(C(N)=O)nc2ccccc12` [Example 224, N^4-{3,5-dimethyl-1-[4-(methylsulfonyl)benzyl]-1H-pyrazol-4-yl}quinoline-2,4-dicarboxamide], 7.95; in that of `Cc1ccc2nc(C)cc(C(=O)Nc3c(C)nn(Cc4cccc(OC(F)(F)F)c4)c3C)c2c1` [Example 117, N-{3,5-dimethyl-1-[3-(trifluoromethoxy)benzyl]-1H-pyrazol-4-yl}-2,6-dimethylquinoline-4-carboxamide], 6.03. Then `CNC(=O)CCNC(=O)c1ccc(Cn2nc(C)c(NC(=O)c3cc(C(F)(F)F)nc4ccc(Br)cc34)c2C)cc1` [Example 1157], with 6.83; and `Cc1nn(Cc2ccc(F)cc2C#N)c(C)c1NC(=O)c1cc(C(N)=O)nc2cc(F)c(Cl)cc12` [Example 1663], with 8.96; and `Cc1nn(Cc2ccc(C(=O)N3CC(C#N)C3)cc2)c(C)c1NC(=O)c1cc(C(F)(F)F)nc2ccc(Br)cc12` [Example 1147], with 6.93. In the case of `Cc1nn(Cc2ccccc2OC(F)(F)F)c(C)c1NC(=O)c1cc(C(F)(F)F)nc2c(Cl)cc(Cl)cc12` [Example 1288] it was 5.20; in that of `Cc1nn(Cc2ccc(C(=O)NCCCC(=O)N(C)C)cc2)c(C)c1NC(=O)c1cc(C(F)(F)F)nc2ccc(Br)cc12` [Example 1044], 8.06. For the compound `CCc1noc(Cn2nc(C(F)(F)F)c(NC(=O)c3cc(C(N)=O)nc4ccccc34)c2C)n1` [Example 1536], the pIC50 is 7.10. In the case of `Cc1ccccc1Cn1nc(C(F)(F)F)c(NC(=O)c2cc(C(N)=O)nc3cc(F)c(Cl)cc23)c1C` [Example 1497] it was 8.37; in that of `Cc1cc(C(=O)Nc2c(C)nn(Cc3ccc(F)cc3)c2C)c2cc(F)ccc2n1` [Example 90, 6-fluoro-N-[1-(4-fluorobenzyl)-3,5-dimethyl-1H-pyrazol-4-yl]-2-methylquinoline-4-carboxamide], 6.54. As for `Cc1c(NC(=O)c2cc(C(N)=O)nc3cc(F)ccc23)c(C(F)(F)F)nn1Cc1c(F)cc(C#N)cc1F` [Example 395, N^4-[1-(4-cyano-2,6-difluorobenzyl)-5-methyl-3-(trifluoromethyl)-1H-pyrazol-4-yl]-7-fluoroquinoline-2,4-dicarboxamide], the pIC50 is 8.28. In the case of `Cc1c(NC(=O)c2cc(C(N)=O)nc3cccc(F)c23)c(C(F)(F)F)nn1Cc1ccccc1OC(F)(F)F` [Example 1706] it was 6.21; in that of `Cc1cc(F)ccc1Cn1nc(C(F)(F)F)c(NC(=O)c2cc(C(N)=O)nc3ccccc23)c1C` [Example 1713], 8.30.
